Measurements reported in patent USRE40086E1, “Method for treating bacterial infection with novel 7-substituted-9-substituted amino 6-demethyl-6-deoxytetracyclines” (Wyeth Holdings Corporation, priority 1991, dated 2008).

Assays:
Format in all cases: cell-based
[1] = tested on: E. coli J3272 TetD; experiment: MIC, agar dilution (Table IA); conditions: unit assumed
[2] = tested on: E. coli UBMS 90-5; experiment: MIC, agar dilution (Table IA); conditions: unit assumed
[3] = tested on: E. coli MC4100 TetB; experiment: MIC, agar dilution (Table IA); conditions: unit assumed
[4] = tested on: S. aureus UBMS 90-2 (tetM); experiment: MIC, agar dilution; conditions: S. aureus UBMS 90-2 TetM; Table IA; unit assumed
[5] = tested on: E. coli MC4100 Tet sens.; experiment: MIC, agar dilution (Table IA); conditions: unit assumed
[6] = tested on: S. aureus Smith (Sensitive); experiment: MIC, agar dilution; conditions: S. aureus SMITH (MP); Table IA; unit assumed
[7] = tested on: S. aureus UBMS 90-3 (Sensitive); experiment: MIC, agar dilution; conditions: S. aureus UBMS 90-3; Table IA; unit assumed
[8] = tested on: S. aureus UBMS 88-7 (tetK); experiment: MIC, agar dilution; conditions: S. aureus UBMS 88-7 TetK; Table IA; unit assumed
[9] = tested on: E. coli UBMS 89-2 (Sensitive); experiment: MIC, agar dilution; conditions: E. coli UBMS 89-2 Tet Sens.; Table IA; unit assumed
[10] = tested on: E. coli PRP1 TetA; experiment: MIC, agar dilution (Table IA); conditions: unit assumed
[11] = tested on: S. mariescens FDOR 8733; experiment: MIC, agar dilution (Table IA); conditions: unit assumed
[12] = tested on: S. aureus NEMC 8769/89-4; experiment: MIC, agar dilution (Table IA); conditions: unit assumed
[13] = tested on: E. coli #311 (MP); experiment: MIC, agar dilution (Table IA); conditions: unit assumed
[14] = tested on: E. coli UBMS 89-1 (tetM); experiment: MIC, agar dilution; conditions: E. coli UBMS 89-1 TetM; Table IA; unit assumed
[15] = tested on: S. aureus IVES 2943 (meth. resistant); experiment: MIC, agar dilution; conditions: S. aureus IVES 2943; Table IA; unit assumed
[16] = tested on: S. haemolyticus AVAH 88-3; experiment: MIC, agar dilution; conditions: S. hemolyticus AVHAH 88-3; Table IA; unit assumed
[17] = tested on: S. aureus ROSE (MP); experiment: MIC, agar dilution (Table IA); conditions: unit assumed
[18] = tested on: E. faecalis ATCC 29212; experiment: MIC, agar dilution; conditions: E. faecalis ATCC 29212; Table IA; unit assumed
[19] = tested on: S. aureus UBMS 88-4 (Sensitive); experiment: MIC, agar dilution; conditions: S. aureus UBMS 88-4; Table IA; unit assumed
[20] = tested on: E. faecalis 12201; experiment: MIC, agar dilution; conditions: Enterococcus 12201; Table IA; unit assumed
[21] = tested on: S. aureus ATCC 29213 (Sensitive); experiment: MIC, agar dilution; conditions: S. aureus ATCC 29213; Table IA; unit assumed
[22] = tested on: E. coli UBMS 88-1 (tetB); experiment: MIC, agar dilution; conditions: E. coli UBMS 88-1 TetB; Table IA; unit assumed
[23] = tested on: E. coli J3272 TetC; experiment: MIC, agar dilution (Table IA); conditions: unit assumed
[24] = tested on: E. coli BAJ9003; experiment: MIC, agar dilution (Table IA)
[25] = tested on: X. maltophilia NEMC 87210; experiment: MIC, agar dilution (Table IA); conditions: unit assumed
[26] = tested on: Ps. acruginosa ATCC 27853; experiment: MIC, agar dilution (Table IA); conditions: unit assumed
[27] = tested on: E. coli UBMS 90-4 (tetM); experiment: MIC, agar dilution; conditions: E. coli UBMS 90-4 TetM; Table IA; unit assumed
[28] = tested on: E. coli ATCC 25922; experiment: MIC, agar dilution; conditions: E. coli ATCC 25922; Table IA; unit assumed
[29] = tested on: S. aureus UBMS 88-5 (tetM); experiment: MIC, agar dilution; conditions: S. aureus UBMS 88-5 TetM; Table IA; unit assumed
[30] = tested on: E. coli J2175; experiment: MIC, agar dilution (Table IA); conditions: unit assumed
[31] = tested on: S. aureus IVES 1983 (meth. resistant); experiment: MIC, agar dilution; conditions: S. aureus IVES 1983; Table IA; unit assumed
[32] = tested on: S. aureus UBMS 90-1 (tetM); experiment: MIC, agar dilution; conditions: S. aureus UBMS 90-1 TetM; Table IA; unit assumed

Structure (SMILES): CN(C)CC(=O)Nc1cc(N(C)C)c2c(c1O)C(=O)C1=C(O)[C@]3(O)C(=O)C(C(=O)NCN4CCCC4)=C(O)[C@@H](N(C)C)C3CC1C2 (stereo partly drawn) [FFF, [4S-(4alpha,12aalpha)]-4,7-Bis(dimethylamino)-9-[[(dimethylamino)acetyl]amino]-1,4,4a,5,5a,6,11,12a-octahydro-3,10,12,12a-tetrahydroxy-1,11-dioxo-N-(1-pyrrolidinylmethyl)-2-naphthacenecarboxamide]
- Antibacterial activity (MIC) [1]: 0.12 µg/mL
- Antibacterial activity (MIC) [2]: 0.25 µg/mL
- Antibacterial activity (MIC) [3]: 0.25 µg/mL
- Antibacterial activity (MIC) [4]: 0.12 µg/mL
- Antibacterial activity (MIC) [5]: 0.06 µg/mL
- Antibacterial activity (MIC) [6]: 0.12 µg/mL
- Antibacterial activity (MIC) [7]: 0.12 µg/mL
- Antibacterial activity (MIC) [8]: 1 µg/mL
- Antibacterial activity (MIC) [9]: 0.25 µg/mL
- Antibacterial activity (MIC) [10]: 2 µg/mL
- Antibacterial activity (MIC) [11]: 4 µg/mL
- Antibacterial activity (MIC) [12]: 0.25 µg/mL
- Antibacterial activity (MIC) [13]: 0.25 µg/mL
- Antibacterial activity (MIC) [14]: 0.12 µg/mL
- Antibacterial activity (MIC) [15]: 2 µg/mL
- Antibacterial activity (MIC) [16]: 0.25 µg/mL
- Antibacterial activity (MIC) [17]: 2 µg/mL
- Antibacterial activity (MIC) [18]: 0.06 µg/mL
- Antibacterial activity (MIC) [19]: 0.12 µg/mL
- Antibacterial activity (MIC) [20]: 0.12 µg/mL
- Antibacterial activity (MIC) [21]: 0.12 µg/mL
- Antibacterial activity (MIC) [22]: 0.25 µg/mL
- Antibacterial activity (MIC) [23]: 1 µg/mL
- Antibacterial activity (MIC) [24]: ≧0.015
- Antibacterial activity (MIC) [25]: 0.25 µg/mL
- Antibacterial activity (MIC) [26]: 8 µg/mL
- Antibacterial activity (MIC) [27]: 0.12 µg/mL
- Antibacterial activity (MIC) [28]: 0.12 µg/mL
- Antibacterial activity (MIC) [29]: 0.12 µg/mL
- Antibacterial activity (MIC) [30]: 0.25 µg/mL
- Antibacterial activity (MIC) [31]: 2 µg/mL
- Antibacterial activity (MIC) [32]: 0.12 µg/mL
